Results taken from patent US12134610B2, “Somatostatin subtype-2 receptor (SST2R) targeted therapeutics and uses thereof” (priority 2022, dated 2024).
pEC50: −log10 of the molar value. Where two headings read alike, the source gives them in different places.

Biological target: T1, human somatostatin receptor subtype 2 (Homo sapiens, UniProt P30874)
T1 construct: expressed in transfected cells
Assay: Functional cAMP assay for SSTR2 agonists (HTRF) in CHO-K1 cells
Format: cell-based
Settings: CHO-K1 cells stably expressing human SST2, 20 min; for pEC50: read-out: hSST2 cAMP Avg EC50; for EC50: hSST2 cAMP Avg EC50 (nM)
From the text: General overview: All five SSTR subtypes are Gi coupled G-protein coupled receptors (GPCRs) that lead to decreases in intracellular cyclic AMP (cAMP) when activated by an agonist. Therefore, measurement of intracellular cAMP levels can be used to assess whether compounds of the invention are agonists of SSTR subtypes (John Kelly, Troy Stevens, W. Joseph Thompson, and Roland Seifert, Current Protocols in Pharmacology, 2005, 2.2.1-2.2). One example of an intracellular cAMP assay is described below.
Functional Assay for SSTR2 Agonists
Four days prior to the assay, 2,000 Chinese hamster ovary cells (CHO-K1, ATCC #CCL-61) stably expressing the human somatostatin receptor subtype 2 are plated in each well of a 96-well tissue culture-treated plate in Ham's F12 growth media (ThermoFisher #10-080-CM) supplemented with 10% donor bovine serum (Gemini Bio-Products #100-506), 100 U/mL penicillin; 100 ug/mL streptomycin; 2 mM L-glutamine (Gemini Bio-Products #400-110) and 0.2 mg/mL hygromycin B (GoldBio #31282-04-9). The cells are cultured at 37° C., 5% CO2 and 95% humidity. cAMP is measured with HTRF dynamic cAMP assay (Cisbio, #62AM5PEJ) per manufacturer's instructions. On the day of the assay, the media is aspirated and the cells are treated with 50 μL of stimulation buffer supplemented with 10.2 mM 3-Isobutyl-1-methylxanthine (IBMX, Millipore Sigma #15879) and 1.6 μM NKH477 (Tocris #1603), plus various dilutions of SMDCs of the present invention. The cells are incubated for 20 minutes at 37° C. (the final concentration of the compounds of the invention are typically 0-10,000 nM). The cells are treated with 50 μL of lysis buffer (HRTF cAMP kit, Cisbio) and incubated at room temperature for 30 minutes with rotary shaking at 600 rpm, and then diluted with 150 μL of stimulation buffer and shaken for an additional five minutes at 300 rpm. The lysate is transferred to 384-well plates and incubated for 1-24 hours at room temperature, and cAMP accumulation is detected by d2-labeled cAMP and Anti-cAMP-Cryptate. The time-resolved fluorescent signal is read using a m1000 Pro (Tecan) or CLARIOStar (BMG Labtech) microplate reader, where the samples are excited with light at 340 nm and emission light is measured at 620 nm and 665 nm. The data is expressed as a calculation of the fluorescence ratio (665 nm/620 nm). The intracellular cAMP concentrations are calculated by regression to a standard curve and are plotted vs. the concentration of the compounds of the invention. The EC50 of the compounds are calculated using standard methods. All data manipulations are in GraphPad Prism v9 (GraphPad, San Diego, CA).

T1 sequence (P30874 whole entry): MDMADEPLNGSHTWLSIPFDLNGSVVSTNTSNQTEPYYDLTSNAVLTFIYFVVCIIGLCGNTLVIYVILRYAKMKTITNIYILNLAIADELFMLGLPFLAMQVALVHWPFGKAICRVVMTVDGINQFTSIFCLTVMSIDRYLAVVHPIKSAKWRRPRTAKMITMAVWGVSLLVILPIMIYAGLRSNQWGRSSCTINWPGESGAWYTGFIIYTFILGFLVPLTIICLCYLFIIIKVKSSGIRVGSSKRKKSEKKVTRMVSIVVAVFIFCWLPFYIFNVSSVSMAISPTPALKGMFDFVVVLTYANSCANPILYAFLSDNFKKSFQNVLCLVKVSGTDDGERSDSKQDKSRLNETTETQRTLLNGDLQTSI

Structure (SMILES) | pEC50 | EC50
Cc1cc(F)cc(-c2cnc(NCCNC(=O)CCOCCOCCOCCOCCOCCNC(=O)CN3CCN(CC(=O)O)CCN(CC(=O)O)CCN(CC(=O)O)CC3)c(-c3nc4cc(Cl)ccc4[nH]3)c2N2CCC(N)CC2)c1 [Comp. 1, 2-{7-[({17-[(2-{[4-(4-aminopiperidin-1-yl)-3-(5-chloro-1H-1,3-benzodiazol-2-yl)-5-(3-fluoro-5-methylphenyl)pyridin-2-yl]amino}ethyl)carbamoyl]-3,6,9,12,15-pentaoxaheptadecan-1-yl}carbamoyl)methyl}-4,10-bis(carboxymethyl)-1,4,7,10-tetraazacyclododecan-1-yl}acetic acid, reference compound] | 10.12 | 
Cc1cc(F)cc(-c2cnc(NCCOC(=O)NCCOCCOCCOCCOCCOCCNC(=O)CN3CCN(CC(=O)O)CCN(CC(=O)O)CCN(CC(=O)O)CC3)c(-c3nc4cc(Cl)ccc4[nH]3)c2N2CCC(N)CC2)c1 [Comp. 2, 2-(7-{[(17-{[(2-{[4-(4-aminopiperidin-1-yl)-3-(5-chloro-1H-1,3-benzodiazol-2-yl)-5-(3-fluoro-5-methylphenyl)pyridin-2-yl]amino}ethoxy)carbonyl]amino}-3,6,9,12,15-pentaoxaheptadecan-1-yl)carbamoyl]methyl}-4,10-bis(carboxymethyl)-1,4,7,10-tetraazacyclododecan-1-yl)acetic acid, reference compound] | 9.77 | 
Cc1cc(F)cc(-c2cnc(NCCCNC(=O)CCOCCOCCOCCOCCOCCNC(=O)CN3CCN(CC(=O)O)CCN(CC(=O)O)CCN(CC(=O)O)CC3)c(-c3nc4cc(Cl)ccc4[nH]3)c2N2CCC(N)CC2)c1 [Compound 3, 2-{7-[{{17-[(3-{[4-(4-aminopiperidin-1-yl)-3-(5-chloro-1H-1,3-benzodiazol-2-yl)-5-(3-fluoro-5-methylphenyl)pyridin-2-yl]amino}propyl)carbamoyl]-3,6,9,12,15-pentaoxaheptadecan-1-yl}carbamoyl)methyl]-4,10-bis(carboxymethyl)-1,4,7,10-tetraazacyclododecan-1-yl}acetic acid] | 9.85 | 
Cc1cc(F)cc(-c2cnc(NC3CCN(C(=O)CCOCCOCCOCCOCCOCCOCCNC(=O)CN4CCN(CC(=O)O)CCN(CC(=O)O)CCN(CC(=O)O)CC4)CC3)c(-c3nc4cc(Cl)ccc4[nH]3)c2N2CCC(N)CC2)c1 [Compound 4, 2-[7-({[21-(4-{[4-(4-aminopiperidin-1-yl)-3-(5-chloro-1H-1,3-benzodiazol-2-yl)-5-(3-fluoro-5-methylphenyl)pyridin-2-yl]amino}piperidin-1-yl)-21-oxo-3,6,9,12,15,18-hexaoxahenicosan-1-yl]carbamoyl}methyl)-4,10-bis(carboxymethyl)-1,4,7,10-tetraazacyclododecan-1-yl]acetic acid] | 9.70 | 
Cc1cc(F)cc(-c2cnc(NCCOCCOCCOCCOCCNC(=O)CN3CCN(CC(=O)O)CCN(CC(=O)O)CCN(CC(=O)O)CC3)c(-c3ccc(C(F)(F)F)cc3)c2N2CCC(N)CC2)c1 [Compound 5, 2-(4-{[(14-{[4-(4-aminopiperidin-1-yl)-5-(3-fluoro-5-methylphenyl)-3-[4-(trifluoromethyl)phenyl]pyridin-2-yl]amino}-3,6,9,12-tetraoxatetradecan-1-yl)carbamoyl]methyl}-7,10-bis(carboxymethyl)-1,4,7,10-tetraazacyclododecan-1-yl)acetic acid] | 9.18 | 
COCCOCCOCCOCCOCCC(=O)NCCNc1ncc(-c2cc(C)cc(F)c2)c(N2CCC(N)CC2)c1-c1nc2ccc(Cl)cc2[nH]1 [Compound 14, N-(2-{[4-(4-aminopiperidin-1-yl)-3-(6-chloro-1H-1,3-benzodiazol-2-yl)-5-(3-fluoro-5-methylphenyl)pyridin-2-yl]amino}ethyl)-2,5,8,11,14-pentaoxaheptadecan-17-amide] | 10.32 | 
Cc1cc(F)cc(-c2cnc(NCCNC(=O)CCOCCOCCOCCOCCOCCNC(=O)CN3CCN4CCN5CCN(CC3)CC(=O)[O][In]([O]C(=O)C4)[O]C(=O)C5)c(-c3nc4cc(Cl)ccc4[nH]3)c2N2CCC(N)CC2)c1 [Compound 15, N-(2-{[4-(4-aminopiperidin-1-yl)-3-(5-chloro-1H-1,3-benzodiazol-2-yl)-5-(3-fluoro-5-methylphenyl)pyridin-2-yl]amino}ethyl)-1-(2-{3,16,19-trioxo-2,17,18-trioxa-5,8,11,14-tetraaza-1-indatricyclo[9.6.3.2^5,14]docosan-8-yl}acetamido)-3,6,9,12,15-pentaoxaoctadecan-18-amide] | 10.24 | 
Cc1cc(F)cc(-c2cnc(NCCCNC(=O)CCOCCOCCOCCOCCOCCNC(=O)CN3CCN4CCN5CCN(CC3)CC(=O)[O][In]([O]C(=O)C4)[O]C(=O)C5)c(-c3nc4cc(Cl)ccc4[nH]3)c2N2CCC(N)CC2)c1 [Compound 16, N-(3-{[4-(4-aminopiperidin-1-yl)-3-(5-chloro-1H-1,3-benzodiazol-2-yl)-5-(3-fluoro-5-methylphenyl)pyridin-2-yl]amino}propyl)-1-(2-{3,16,19-trioxo-2,17,18-trioxa-5,8,11,14-tetraaza-1-indatricyclo[9.6.3.2^5,^14]docosan-8-yl}acetamido)-3,6,9,12,15-pentaoxaoctadecan-18-amide] | 9.96 | 
Cc1cc(F)cc(-c2cnc(NC3CCN(C(=O)CCOCCOCCOCCOCCOCCOCCNC(=O)CN4CCN5CCN6CCN(CC4)CC(=O)[O][In]([O]C(=O)C5)[O]C(=O)C6)CC3)c(-c3nc4cc(Cl)ccc4[nH]3)c2N2CCC(N)CC2)c1 [Compound 17, N-[21-(4-{[4-(4-aminopiperidin-1-yl)-3-(5-chloro-1H-1,3-benzodiazol-2-yl)-5-(3-fluoro-5-methylphenyl)pyridin-2-yl]amino}piperidin-1-yl)-21-oxo-3,6,9,12,15,18-hexaoxahenicosan-1-yl]-2-{3,16,19-trioxo-2,17,18-trioxa-5,8,11,14-tetraaza-1-indatricyclo[9.6.3.2^5,^14]docosan-8-yl}acetamide] | 10.00 | 
Cc1cc(F)cc(-c2cnc(NCCOCCOCCOCCOCCNC(=O)CN3CCN4CCN5CCN(CC3)CC(=O)[O][In]([O]C(=O)C4)[O]C(=O)C5)c(-c3ccc(C(F)(F)F)cc3)c2N2CCC(N)CC2)c1 [Compound 18, N-(14-{[4-(4-aminopiperidin-1-yl)-5-(3-fluoro-5-methylphenyl)-3-[4-(trifluoromethyl)phenyl]pyridin-2-yl]amino}-3,6,9,12-tetraoxatetradecan-1-yl)-2-{3,16,19-trioxo-2,17,18-trioxa-5,8,11,14-tetraaza-1-indatricyclo[9.6.3.2^5,^14]docosan-8-yl}acetamide] | 8.74 | 
CC[C@@]1(O)C(=O)OCc2c1cc1n(c2=O)Cc2c-1nc1cc(F)c(C)c3c1c2[C@@H](NC(=O)OCc1ccc(NC(=O)[C@H](CCCNC(N)=O)NC(=O)[C@@H](NC(=O)CCOCCC(=O)NCCNc2ncc(-c4cc(C)cc(F)c4)c(N4CCC(N)CC4)c2-c2nc4ccc(Cl)cc4[nH]2)C(C)C)c(O[C@@H]2O[C@H](C(=O)O)[C@@H](O)[C@H](O)[C@H]2O)c1)CC3 [Compound 73] |  | 0.49 nM
CC[C@@]1(O)C(=O)OCc2c1cc1n(c2=O)Cc2c-1nc1cc(F)c(C)c3c1c2[C@@H](NC(=O)OCc1ccc(NC(=O)[C@H](CCCNC(N)=O)NC(=O)[C@@H](NC(=O)CCOCCOCCOCCOCCC(=O)NCCNc2ncc(-c4cc(C)cc(F)c4)c(N4CCC(N)CC4)c2-c2nc4ccc(Cl)cc4[nH]2)C(C)C)c(O[C@@H]2O[C@H](C(=O)O)[C@@H](O)[C@H](O)[C@H]2O)c1)CC3 [Compound 74] |  | 0.31 nM
